From patent US20220339150A1, “ENDOCANNABINOID SYSTEM-TARGETING PRODRUGS AND THERAPEUTIC USES THEREOF” (priority 2021, published 2022)
Values after ≈ are worked out from the molar mass of the structure shown. Read-outs that look alike come from different tables or passages of the source.

Tests used:
[1] = Aqueous solubility of CBD and solubility in various solvents; assay type: physicochemical
Procedure: CBD was dissolved in 50 mM phosphate buffer, pH 6.8, containing 10% (v/v) EtOH. Suspensions were centrifuged for 3 min at 14000 rpm. Solubilities are between 15-110 μg/ml. Some floating particles can be seen which, once dissolved, cause variation in the result. When the suspension was filtered (Millex 0.45 μm) no detectable (HPLC) CBD was found.
CBD solubility in various solvents when ca. 1 mg was dissolved in ca. 1 ml. Solutions/suspensions were centrifuged, and 100 μl of the sample was mixed with 100 μl MeOH:H2O (1:1).
The solubility of CBD in various solvents is shown below: • 1. 50% EtOH:50% H2O=ca. 1 mg/ml • 2. 15% HP-beta-CD:85% H2O=0.7 mg/ml • 3. 5% HP-beta-CD:0.5% HPMC:84.5% H2O=0.16 mg/ml • 4. 4% BSA:95% H2O=0.07 mg/ml • 5. 90% Propylene glycol:10% H2O=0.87 mg/ml • 6. 30% Solutol® HS 15:10% EtOH:60% H2O=0.96 mg/ml

[2] = Metabolic stability in human liver microsomes; assay type: in vitro ADME; details: for half-life at 15 µg/mL: pH 7.4, Table 3
Procedure: The prodrugs were incubated with the human liver microsomes at 37° C. as an indication of the susceptibility of prodrugs to undergo bioconversion in the liver. The reactions were initiated by adding 1.5 μL of the prodrug stock solution (10 mg/mL in DMSO) to a preheated solution consisting of 748.5 μL potassium phosphate buffer solution (20 mM, pH 7.4, ionic strength 0.5), 200 μL NADPH, and 50 μLhuman liver microsomes (mixed gender, 0.5 ml at 20 mg/mL). The solutions were stirred at a constant temperature of 37° C. At appropriate intervals, 50 μLof samples were mixed with 100 μL of ice-cold MeOH. After immediate mixing and centrifugation (5 min at 14.000 rpm), the resulting clear supernatant was analyzed for the remaining prodrug by HPLC.

[3] = tested on: reconstructed human epidermis cells; experiment: In vitro skin permeability (SkinEthic Episkin reconstructed human epidermis); assay type: in vitro ADME; details: receiver 15% HP-beta-CD pH 7.4
Procedure: The in vitro permeability studies were carried out in commercial reconstructed human epidermis cells (SkinEthic™ Episkin Reconstructed human epidermis). This model is composed of TR146 cells (derived from a squamous cell carcinoma of the buccal mucosa) cultivated on an inert polycarbonate filter at the air-liquid interface in a chemically defined medium. This model forms an epithelial tissue devoid of stratum corneum, resembling histologically to the mucosa of the oral cavity.
Upon receiving the cells, each insert (0.5 cm^2 or 0.33 cm^2) was placed in a plate containing 800 μL fresh medium at room temperature. The culture dishes were placed in the incubator at 37° C., 5% CO2, and saturated humidity overnight. Next day, the inserts were placed in a plate containing 800 μL 15% HP-β-cyclodextrin in H2O. CBD and CBG, and prodrugs CBDp27 and CBGp1 were dissolved in two different vehicles, 1:1:1 prop gly:water:EtOH/6% Brij 98, and 100% mineral oil. The receiver solution was 15% HP-beta-CD in phosphate buffer (pH 7.4). 400 μL the prodrugs were applied as suspensions (ca. 2 mg/ml). The plates were stirred gently at 37° C. At appropriate intervals, the receptor compartment was sampled (100 μL) and replenished with fresh […] solution each time. The samples were mixed with 100 μL of MeOH, and analyzed for drug (both the parent drug and prodrug) by HPLC-MS.
The flux-values for the rate of delivery of drugs were determined from Fick's law of diffusion.

C=C(C)[C@@H]1CCC(C)=C[C@H]1c1c(O)cc(CCCCC)cc1O [CBD, Cannabidiol]
Solubility after filtration (HPLC) ([1]; 50 mM phosphate buffer, pH 6.8, 10% EtOH, suspension filtered (Millex 0.45 μm)): no detectable
solubility ([1]; 15% HP-beta-CD:85% H2O, ca. 1 mg in ca. 1 ml): 700 µg/mL (≈ 2230 µM)
solubility ([1]; aqueous with cosolvent or surfactant or cyclodextrin, thermodynamic from solid, 4% BSA:95% H2O, ca. 1 mg in ca. 1 ml, read-out: Solubility): 70 µg/mL (≈ 223 µM)
solubility ([1]; aqueous with cosolvent or surfactant or cyclodextrin, thermodynamic from solid, 5% HP-beta-CD:0.5% HPMC:84.5% H2O, ca. 1 mg in ca. 1 ml, read-out: Solubility): 160 µg/mL (≈ 509 µM)
solubility ([1]; aqueous with cosolvent or surfactant or cyclodextrin, thermodynamic from solid, 30% Solutol HS 15:10% EtOH:60% H2O, ca. 1 mg in ca. 1 ml, read-out: Solubility): 960 µg/mL (≈ 3050 µM)
solubility ([1]; aqueous with cosolvent or surfactant or cyclodextrin, thermodynamic from solid, 50% EtOH:50% H2O, ca. 1 mg in ca. 1 ml, read-out: Solubility): ~1000 µg/mL (≈ 3180 µM)
solubility ([1]; organic solvent or mixture, thermodynamic from solid, 90% Propylene glycol:10% H2O, ca. 1 mg in ca. 1 ml, read-out: Solubility): 870 µg/mL (≈ 2770 µM)
solubility ([1]; phosphate buffer with 10% (v/v) ethanol, aqueous with cosolvent or surfactant or cyclodextrin, thermodynamic from solid, 50 mM phosphate buffer, pH 6.8, 10% (v/v) EtOH, suspension centrifuged, read-out: Solubility): 15 to 110 µg/mL (≈ 47.7 to 350 µM)
Half-life in human liver microsomes (single determinations) ([2]; Table 3, 37° C., NADPH): 23.4 min
half-life at 15 µg/mL ([2]; both sexes, human, microsomes, 37° C., NADPH, read-out: Half-life in human liver microsomes (single determinations) (converted)): 36 min
half-life at 15 µg/mL ([2]; both sexes, human, microsomes, average of determinations, read-out: Half-life in human liver microsomes (avg.) (converted)): 30 min
microsomal CLint at 15 µg/mL ([2]; both sexes, human, microsomes, pH 7.4, Table 3, CLint = k/P, protein 1 mg, read-out: Intrinsic clearance CLint): 23.1 µL/min/mg
Skin permeation, applied compound (parent or intact prodrug) ([3]; vehicle mineral oil): 0.0233 ± 0.007 nmol/cm^2/h
Skin permeation, applied compound (parent or intact prodrug) ([3]; vehicle solvent mix (1:1:1 prop gly:water:EtOH/6% Brij 98)): 1.16 ± 0.12 nmol/cm^2/h
